{
  "source": "patent US20170202973A1",
  "about": "(GENENTECH, INC., priority 2009, published 2017)",
  "key": {"[1]": {"conditions": "cited from earlier work"}, "[2]": {"tested_on": "HER2-positive metastatic breast cancer", "conditions": "for Patients Censored, % / Patients Censored, number / Patients Progressed, % / Patients Progressed, number: PFS analysis; for CR / Clinical Benefit Rate / Missing tumor response / Objective Response Rate, % / PD / PR / UE: N = 110, updated analysis", "description": "The analysis of objective response rate was conducted with patient data collected through approximately 26 weeks after the last patient is enrolled in the study. This study enrolled patients with HER2-positive MBC. […] Patients will be required to have HER2-positive status, as evidenced by either 3+ HER2 protein overexpression determined by immunohistochemistry (IHC) or HER2 gene amplification determined by FISH.\nEfficacy Assessments: Tumor responses were categorized as complete response (CR), partial response (PR), stable disease (SD), or progressive disease (PD) according to the Response Evaluation Criteria for Solid Tumors (RECIST). Tumor assessments (CT and/or magnetic resonance imaging [MRI] scans) were performed approximately every 6 weeks irrespective of dose delays, interruptions, or reductions. Bone and brain scans (either CT or Mill) were performed at baseline and if clinically indicated during the study. Patient management decisions were made based on tumor assessments performed by investigators. The primary study endpoints related to response were determined by an independent radiologic review of patient scans, with assessments based on investigator reporting being secondary. If each non-target lesion cannot be assessed at a follow-up tumor assessment timepoint, patients may still be considered evaluable for timepoint response as long as all target lesions are measured. Patients with non-target lesions that were not assessed at a timepoint were assessed as having a partial response, stable disease, or progressive disease. All lesions, target and non-target, were assessed before a response was considered confirmed. To reduce the frequency of unevaluable non-target lesions, bone lesions visible on baseline CT scan as non-target lesion(s) for follow-up, were compared with bone lesions identified on the baseline bone scan where possible if lesions are not visible on both modalities or as easily and reproducibly assessed.\nEfficacy Assessments: An assessment of the objective response rate, the primary objective of this trial, was based on the RECIST and confirmed by independent review of baseline and follow-up assessments obtained every 6 weeks. All known sites of disease should be reassessed at each timepoint whenever possible. Because bone involvement is a common finding in patients with MBC, a bone scan at baseline may be conducted. In addition, patients with non-target lesions that were not assessed at a timepoint were assessed as having a partial response, stable disease, or progressive disease. All lesions, target and non-target (including bone lesions), were assessed before a complete response can be considered confirmed.\nEfficacy Outcome Measures: The primary efficacy outcome measure is objective response (defined as a complete or partial response determined on two consecutive occasions 4 weeks apart), as assessed through independent radiologic review using RECIST. The secondary efficacy outcome measures are as follows: Duration of objective response, as assessed through independent radiologic review using RECIST; PFS, as assessed through independent radiologic review using RECIST; CBR based on independent radiologic review using RECIST; Objective response based on investigator assessments using RECIST; Duration of objective response based on investigator assessments using RECIST; PFS based on investigator assessments using RECIST; and CBR based on investigator assessments using RECIST.\nThe analysis of objective response rate was conducted with patient data collected through approximately 26 weeks after the last patient was enrolled in the study. In addition, the final analysis of safety and all secondary and exploratory endpoints will be updated with sufficient data when available (estimated to be approximately 10 months after the last patient is enrolled in the study). After the final analysis, the study was closed. […] This study enrolled patients with HER2-positive MBC."}, "[3]": {"conditions": "Investigator, N = 110, initial analysis"}, "[4]": {"conditions": "Patients with HER2+ retrospectively confirmed, n = 76, INV, initial analysis"}, "[5]": {"conditions": "Patients with HER2+ retrospectively confirmed, n = 76, IRF, initial analysis"}, "[6]": {"conditions": "Patients with HER2+ retrospectively confirmed, n = 80, INV, updated analysis"}, "[7]": {"conditions": "Patients with HER2+ retrospectively confirmed, n = 80, IRF, updated analysis"}, "[8]": {"conditions": "Patients with HER2 normal, n = 15, INV, initial analysis"}, "[9]": {"conditions": "Patients with HER2 normal, n = 15, IRF, initial analysis"}, "[10]": {"conditions": "of 110 treated, 70 discontinued, data cutoff"}},
  "note": "Read-outs that look alike come from different tables or passages of the source.",
  "data": [
    {"molecule": "COc1cc2cc(c1Cl)N(C)C(=O)C[C@H](OC(=O)[C@H](C)N(C)C(C)=O)[C@]1(C)O[C@H]1[C@H](C)[C@@H]1C[C@@](O)(NC(=O)O1)[C@H](OC)/C=C/C=C(\\C)C2", "note": "[maytansine]", "values": [
      {"measurement": "dose-limiting toxicity (DLT)", "setting": "[1]; approximately 800 patients, 2.0 mg/m^2 every 3 weeks, single dose or 3 consecutive days", "result": "gastrointestinal"},
      {"measurement": "activity in the clinic", "setting": "[1]; at doses that could be safely delivered", "result": "modest"}
    ]},
    {"molecule": "trastuzumab-MCC-DM1 [T-DM1]", "values": [
      {"measurement": "Patients Censored, %", "setting": "[2]; INV, all treated patients", "result": 45.5, "unit": "%"},
      {"measurement": "Patients Censored, number", "setting": "[2]; INV, all treated patients", "result": 50, "unit": "patients"},
      {"measurement": "Patients Progressed, %", "setting": "[2]; INV, all treated patients", "result": 54.5, "unit": "%"},
      {"measurement": "Patients Progressed, number", "setting": "[2]; INV, all treated patients", "result": 60, "unit": "patients"},
      {"measurement": "PFS (months) 25-75%", "setting": "[2]; INV, all treated patients", "result": "2.8-11.1 months"},
      {"measurement": "Missing tumor response, %", "setting": "[2]; IRF, N = 110, initial analysis", "result": "(0.9%)"},
      {"measurement": "PD, %", "setting": "[2]; IRF, N = 110, initial analysis", "result": "(18.2%)"},
      {"measurement": "PR, %", "setting": "[2]; IRF, N = 110, initial analysis", "result": "(32.7%)"},
      {"measurement": "UE, %", "setting": "[2]; IRF, N = 110, initial analysis", "result": "(1.8%)"},
      {"measurement": "CR", "setting": "[2]; IRF", "result": 0, "unit": "%"},
      {"measurement": "Clinical Benefit Rate", "setting": "[2]; IRF", "result": 48.2, "unit": "%"},
      {"measurement": "Missing tumor response", "setting": "[2]; IRF", "result": 0.9, "unit": "%"},
      {"measurement": "Objective Response Rate, %", "setting": "[2]; IRF", "result": 34.5, "unit": "%"},
      {"measurement": "PD", "setting": "[2]; IRF", "result": 18.2, "unit": "%"},
      {"measurement": "PR", "setting": "[2]; IRF", "result": 34.5, "unit": "%"},
      {"measurement": "UE", "setting": "[2]; IRF", "result": 1.8, "unit": "%"},
      {"measurement": "Patients Censored, %", "setting": "[2]; IRF, all treated patients", "result": 54.5, "unit": "%"},
      {"measurement": "Patients Censored, number", "setting": "[2]; IRF, all treated patients", "result": 60, "unit": "patients"},
      {"measurement": "Patients Progressed, %", "setting": "[2]; IRF, all treated patients", "result": 45.5, "unit": "%"},
      {"measurement": "Patients Progressed, number", "setting": "[2]; IRF, all treated patients", "result": 50, "unit": "patients"},
      {"measurement": "PFS (months) 25-75%", "setting": "[2]; IRF, all treated patients", "result": "2.6-9.7 months"},
      {"measurement": "PFS (months) median", "setting": "[2]; IRF, all treated patients, initial analysis", "result": 7.3, "unit": "months"},
      {"measurement": "median PFS", "setting": "[2]; IRF, updated analysis, all treated patients, 95% CI (4.2-8.4)", "result": 6.9},
      {"measurement": "CR, %", "setting": "[2]; [3]", "result": "(1.8%)"},
      {"measurement": "Missing tumor response, %", "setting": "[2]; [3]", "result": "(2.7%)"},
      {"measurement": "PD, %", "setting": "[2]; [3]", "result": "(13.6%)"},
      {"measurement": "PR, %", "setting": "[2]; [3]", "result": "(28.2%)"},
      {"measurement": "UE, %", "setting": "[2]; [3]", "result": "(0.9%)"},
      {"measurement": "CR", "setting": "[2]; Investigator", "result": 4.5, "unit": "%"},
      {"measurement": "Clinical Benefit Rate", "setting": "[2]; Investigator", "result": 46.4, "unit": "%"},
      {"measurement": "Missing tumor response", "setting": "[2]; Investigator", "result": 0.9, "unit": "%"},
      {"measurement": "Objective Response Rate, %", "setting": "[2]; Investigator", "result": 32.7, "unit": "%"},
      {"measurement": "PD", "setting": "[2]; Investigator", "result": 14.5, "unit": "%"},
      {"measurement": "PR", "setting": "[2]; Investigator", "result": 28.2, "unit": "%"},
      {"measurement": "UE", "setting": "[2]; Investigator", "result": 0.9, "unit": "%"},
      {"measurement": "Clinical benefit rate, %", "setting": "[2]; [4]", "result": 47.4, "unit": "%"},
      {"measurement": "ORR, %", "setting": "[2]; [4]", "result": 36.8, "unit": "%"},
      {"measurement": "Clinical benefit rate, %", "setting": "[2]; [5]", "result": 52.6, "unit": "%"},
      {"measurement": "ORR, %", "setting": "[2]; [5]", "result": 39.5, "unit": "%"},
      {"measurement": "Clinical benefit rate, %", "setting": "[2]; [6]", "result": "(53.8%)"},
      {"measurement": "ORR, %", "setting": "[2]; [6]", "result": "(40.0%)"},
      {"measurement": "Clinical benefit rate, %", "setting": "[2]; [7]", "result": "(55.0%)"},
      {"measurement": "ORR, %", "setting": "[2]; [7]", "result": "(41.3%)"},
      {"measurement": "Clinical benefit rate, %", "setting": "[2]; [8]", "result": 20.0, "unit": "%"},
      {"measurement": "ORR, %", "setting": "[2]; [8]", "result": 13.3, "unit": "%"},
      {"measurement": "Clinical benefit rate, %", "setting": "[2]; [9]", "result": 26.7, "unit": "%"},
      {"measurement": "ORR, %", "setting": "[2]; [9]", "result": 20.0, "unit": "%"},
      {"measurement": "patients that discontinued treatment with progressive disease, %", "setting": "[2]; [10]", "result": 52.7, "unit": "%"},
      {"measurement": "patients that discontinued treatment with progressive disease, number", "setting": "[2]; [10]", "result": 58, "unit": "patients"}
    ]}
  ]
}
